According to publication PMC11643690, “Chelating Properties of N6O-Donors Toward Cu(II) Ions: Speciation in Aqueous Environments and Catalytic Activity of the Dinuclear Complexes” (Molecules, 2024):

Columns and labels:
[1] = Potentiometric titration of the Cu(II)/L-CH3 system (constants of in situ-formed complexes); format: binding; settings: for logβi of in situ-formed Cu(II) complex species: overall constant, Cu(II):L 1:1 and 2:1, DMSO 5% (v/v)/H2O (HCl/KCl); for logKi of in situ-formed Cu(II) complex species: stepwise protonation constant
Procedure: The next step was the analysis of the system with L-CH3 and Cu(II). For a better investigation of the binging abilities of the L-CH3 ligand, the titration was performed both for the Cu(II):L-CH3 molar ratio = 1:1 and for 2:1. The overall (logβi) and stepwise (logKi) protonation constants of in situ-formed complexes are collected in Table 2. Depending on pH, L-CH3 forms mono- and di-nuclear complexes with Cu(II) ions, their relative abundance depending on the metal-to-ligand molar ratio.
Potentiometric measurements were carried out using the Metrohm pH-meter system (Herisau, Switzerland) with a Metrohm semi-micro combination electrode at 25 °C, calibrated in a hydrogen ion concentration using HCl. The ligands were dissolved in DMSO (5% v/v/H2O (HCl/KCl)) in order to obtain a concentration of 1 mM. The titrant (KOH 0.1M) was added with a micrometric syringe at 298 K in the pH range of 2.5–11.5 in an argon atmosphere. The stability constants and stoichiometry of the complexes were calculated using the titration curves and the SUPERQUAD and HYPERQUAD [47, 48].

[2] = cited from earlier work
[3] = UV–Vis titration of ligands with Cu(ClO4)2, binding constant by non-linear regression; settings: global formation constant β1,2 (1 ligand : 2 Cu(II)); 1 µM ligand, 5% v/v MeOH/BBS 50 mM, pH 7.4, 25 °C
Procedure: To determine the overall equilibrium constant β1,2 (Kbind), a solution of the ligand was titrated with aliquots of 0.2 equivalents of Cu(II). Monitoring the formation of the complex via UV–Vis spectroscopy, the absorbance around 260 nm, 300 nm, 450 nm, and 700 nm increased during the titration (Figure 3a) in all cases. The latter two bands are visible only at high concentrations (>0.1 mM). These changes are caused by the formation of the complex and the disappearance of the free ligand.
In Figure 3b, the linear increase in the absorbance change (ΔAbs) at 240 nm, upon an increase in Cu(II) amount, is evident, leading to a sharp plateau around 2 equivalents. […] The binding constants were determined by non-linear regression analysis of Equation (2), (2) ∆A/b=(K1∆A1Cu+ β1,2∆A2Cu^2)/1+K1Cu+ β1,2Cu^2 which traces the correlation “ΔAbs/b vs. Cu(II) concentration,” according to K. Connors. In this equation, ΔA is the differences in absorbance at a certain wavelength, b is the optical path (1 cm), K1 is the constant for the formation of the complex 1:1, and β1,2 is the global formation constant (Kbind) for the complex 1:2. ΔA1 and ΔA2 are the differences in absorbance due to the formation of the 1:1 complex and the 1:2 complex, respectively. […]
UV-vis spectra of ligands and complexes were recorded in a quartz cuvette, with 1 cm of optical path. […]

[4] = Peroxidase-like (pro-oxidant) activity, OPD oxidation to DAP by H2O2; format: biochemical; settings: 3.2 μM complex or salt, 0.32 mM OPD, 24 mM H2O2, PBS pH 7.8, 18 h, 25 °C
From the text: The pro-oxidant activity is named after another enzyme, the peroxidase. It is important to underline that this is a drawback of the studied complexes. Peroxidase, such as the already described […], decomposes hydrogen peroxide, producing water, but at the cost of oxidizing another substrate. Similarly, the complexes described here could remove hydrogen peroxide, catalyzing the oxidation of an organic substrate and leading to an enhancement of oxidative stress. Since all the catalytic measurements made so far were in the absence of an oxidizable substrate (excluding the catalyst itself), it is important to also verify this phenomenon. […] This variation in absorbance was monitored for 18 h via UV–Vis spectroscopy. […]
Figure S52: A) UV-vis spectra of [Cu2(L-RNH2)(H2O)2](ClO4)3 in a CAT assay measured every 10 minutes and centered at 450 nm. […] The arrow indicates the absorbance trend over time. B) Oxygen evolution (blue line) and absorbance at 244 nm (green dots) versus time.
For the peroxidase-like activity the variation of absorbance over time was monitored via UV-vis spectroscopy. The substrate OPD (o-phenylenediamine) was oxidized to DAP (2,3-diaminephenazine) by H2O2 in the presence of copper ions, leading to an increase of absorbance at 418 nm. […] The kinetic was recorded in a quartz cuvette with an optical path of 1 cm for 18h (acquiring a spectrum every 20 minutes) at 25°C. […]

Compound | logβi of in situ-formed Cu(II) complex species [1] | logKi of in situ-formed Cu(II) complex species [1] | other results
Cc1cc(CN(Cc2ccccn2)Cc2ccccn2)c([O-])c(CN(Cc2ccccn2)Cc2ccccn2)c1.[Cu+2].[Cu+2] [[Cu2L]^3+] | 15.50 ± 0.03 | 9.26 | 
Cu/Zn-SOD(human): native Cu/Zn superoxide dismutase enzyme |  |  | log(kSOD) [2]: 9.30
NCCc1cc(CN(Cc2ccccn2)Cc2ccccn2)c(O)c(CN(Cc2ccccn2)Cc2ccccn2)c1 [HL-RNH2] |  |  | Kbind [3]: > 10^12 M^−2
O.O.O.O.O.O.[Cu+2].[O-][Cl+3]([O-])([O-])[O-].[O-][Cl+3]([O-])([O-])[O-] [Cu(ClO4)2, copper perchlorate] |  |  | peroxidase-like (pro-oxidant) activity, Abs at 418 nm vs time [4]: much higher

Further lines, with some results ahead:

logβi of in situ-formed Cu(II) complex species [1] | logKi of in situ-formed Cu(II) complex species [1] | Compound | other results
10.20 ± 0.03 | 9.58 | Cc1cc(CN(Cc2ccccn2)Cc2ccccn2)c([O-])c(CN(Cc2ccccn2)Cc2ccccn2)c1.[Cu+2] [[CuL]^+] | 
17.02 ± 0.03 | 6.82 | Cc1cc(CN(Cc2ccccn2)Cc2ccccn2)c(O)c(CN(Cc2ccccn2)Cc2ccccn2)c1.[Cu+2] [[CuHL]^2+] | 
